pIC50: −log10 of the molar value. Bounds are passed on as bounds.

A word on the pIC50: it is −log10 of the IC50, conventionally taken in molar units.

human, KCNT1, sequence (Q5JUK3 whole entry): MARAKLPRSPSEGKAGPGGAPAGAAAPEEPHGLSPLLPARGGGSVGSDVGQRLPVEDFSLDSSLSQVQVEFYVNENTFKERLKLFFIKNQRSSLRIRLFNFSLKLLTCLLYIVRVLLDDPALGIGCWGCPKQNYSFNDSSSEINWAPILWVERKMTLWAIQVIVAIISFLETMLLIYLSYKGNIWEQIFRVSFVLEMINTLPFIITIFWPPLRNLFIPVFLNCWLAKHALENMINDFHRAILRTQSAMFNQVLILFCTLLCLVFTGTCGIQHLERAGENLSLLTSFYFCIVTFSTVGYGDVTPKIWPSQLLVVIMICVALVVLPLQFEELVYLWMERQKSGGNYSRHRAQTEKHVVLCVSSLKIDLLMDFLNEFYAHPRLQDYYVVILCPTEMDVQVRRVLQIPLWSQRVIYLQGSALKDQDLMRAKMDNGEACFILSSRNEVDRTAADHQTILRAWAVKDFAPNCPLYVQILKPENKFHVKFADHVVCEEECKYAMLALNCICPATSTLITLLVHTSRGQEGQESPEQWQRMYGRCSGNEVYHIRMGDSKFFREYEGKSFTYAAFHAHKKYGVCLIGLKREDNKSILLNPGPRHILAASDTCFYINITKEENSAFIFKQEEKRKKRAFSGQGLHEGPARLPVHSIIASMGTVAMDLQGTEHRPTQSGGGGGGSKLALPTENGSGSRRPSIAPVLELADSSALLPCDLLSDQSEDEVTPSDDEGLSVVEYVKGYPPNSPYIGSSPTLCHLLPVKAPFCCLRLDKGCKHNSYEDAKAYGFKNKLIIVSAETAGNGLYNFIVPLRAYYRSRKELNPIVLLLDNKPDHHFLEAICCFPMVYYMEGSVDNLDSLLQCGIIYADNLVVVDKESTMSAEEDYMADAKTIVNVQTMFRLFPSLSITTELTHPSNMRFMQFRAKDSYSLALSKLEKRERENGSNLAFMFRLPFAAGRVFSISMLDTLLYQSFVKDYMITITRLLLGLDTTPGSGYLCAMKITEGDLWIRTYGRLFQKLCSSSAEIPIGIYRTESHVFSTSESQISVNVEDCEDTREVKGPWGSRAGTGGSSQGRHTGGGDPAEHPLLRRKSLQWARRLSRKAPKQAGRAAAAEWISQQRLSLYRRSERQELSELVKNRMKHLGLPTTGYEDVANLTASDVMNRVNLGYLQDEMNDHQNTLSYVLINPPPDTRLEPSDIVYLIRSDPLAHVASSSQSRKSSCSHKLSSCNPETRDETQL

This test concerns the target human, KCNT1 (Homo sapiens (Human), UniProt Q5JUK3). Kind of test: FLIPR Tl/K Flux Assay. To be noted: HEK293 cells stably expressing human KCNT1; Tl+ flux stimulated with EC80 of agonist Loxapine. Format: cell-based. The method in brief: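 Inhibition values come from a Hill-equation fit of % inhibition versus log concentration, using normalized fluorescence (Fmax/Fmin) over a 160 s read. The read followed stimulation with Tl+ plus EC80 agonist loxapine after 30 min compound pre-incubation at 25 °C. Cells were KCNT1-expressing HEK293, dye-loaded 1 h in pH 7.4 HEPES/HBSS with 5 mM probenecid.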
Take `Cn1nc(C(F)(F)F)cc1C(=O)N[C@H]1CCc2nn(-c3ccnc(OC(F)(F)F)c3)cc21` [Compound I-73a]: the pIC50 was over 6.60.

Regarding `Cn1nc(C(F)(F)F)cc1C(=O)N[C@@H]1CCc2nn(-c3ccnc(OC(F)(F)F)c3)cc21` [Compound I-73b], the pIC50 was 6.00 to 6.30.

On to `Cn1nc(C(F)(F)F)cc1C(=O)N[C@H]1CCc2nn(-c3ccnc(OC(F)F)c3)cc21` [Compound I-74a], for which the pIC50 was over 6.60.

`Cn1nc(C(F)(F)F)cc1C(=O)N[C@@H]1CCc2nn(-c3ccnc(OC(F)F)c3)cc21` [Compound I-74b] had a pIC50 of under 6.00.

Compound `Cn1nc(C(F)(F)F)cc1C(=O)N[C@H]1CCc2nn(-c3ccnc(C4(C)CC4)c3)cc21` [Compound I-75a, (S)-1-Methyl-N-(2-(2-(1-methylcyclopropyl)pyridin-4-yl)-2,4,5,6-tetrahydrocyclopenta[c]pyrazol-4-yl)-3-(trifluoromethyl)-1H-pyrazole-5-carboxamide] had a pIC50 of over 6.60.

`Cn1nc(C(F)(F)F)cc1C(=O)N[C@H]1CCc2nn(-c3ccnc(C(C)(C)O)c3)cc21` [Compound I-76a] had a pIC50 of under 6.00.

As to `Cn1nc(C(F)(F)F)cc1C(=O)N[C@H]1CCc2nn(-c3ccnc(C(C)(F)F)c3)cc21` [Compound I-77a, (S)—N-(2-(2-(1,1-Difluoroethyl)pyridin-4-yl)-2,4,5,6-tetrahydrocyclopenta[c]pyrazol-4-yl)-1-methyl-3-(trifluoromethyl)-1H-pyrazole-5-carboxamide], the pIC50 was over 6.60.

For `Cn1nc(C(F)(F)F)cc1C(=O)N[C@@H]1CCc2nn(-c3ccnc(C(C)(F)F)c3)cc21` [Compound I-77b], the pIC50 was 6.00 to 6.30.

On to `C#Cc1cc(-n2cc3c(n2)CC[C@@H]3NC(=O)c2cc(C(F)(F)F)nn2C)ccn1` [Compound I-78a], for which the pIC50 was over 6.60.

Consider `C#Cc1cc(-n2cc3c(n2)CC[C@H]3NC(=O)c2cc(C(F)(F)F)nn2C)ccn1` [Compound I-78b], for which the pIC50 was under 6.00.

For the compound `Cn1nc(C(F)(F)F)cc1C(=O)N[C@H]1CCCc2sc(-c3ccnc(C(F)(F)F)c3)cc21` [Compound I-79a], the pIC50 is over 6.60.

`Cn1nc(C(F)(F)F)cc1C(=O)N[C@H]1CCCc2sc(-c3ccnc(C(F)(F)F)c3)nc21` [Compound I-80a] showed a pIC50 of 6.00 to 6.30.

Compound `Cn1nc(C(F)(F)F)cc1C(=O)N[C@@H]1CCCc2sc(-c3ccnc(C(F)(F)F)c3)nc21` [Compound I-80b] showed a pIC50 of under 6.00.

Compound `Cn1nc(C(F)(F)F)cc1C(=O)N[C@H]1CCCc2cc(-c3ccnc(C(F)(F)F)c3)sc21` [Compound I-81a] showed a pIC50 of over 6.60.

On to `Cn1nc(C(F)(F)F)cc1C(=O)N[C@H]1CCCc2nc(-c3ccnc(C(F)(F)F)c3)sc21` [Compound I-82a], for which the pIC50 was over 6.60.

Turning to `Cn1nc(C(F)(F)F)cc1C(=O)NC1CCCc2nc(-c3ccnc(C(F)(F)F)c3)oc21` (stereo not shown) [Compound I-83], the pIC50 is over 6.60.

Compound `Cn1nc(C(F)(F)F)cc1C(=O)N[C@H]1CCCc2oc(-c3ccnc(C(F)(F)F)c3)nc21` [Compound I-84a] showed a pIC50 of over 6.60.

In turn, `Cn1nc(C(F)(F)F)cc1C(=O)N[C@H]1CCCn2nc(-c3ccnc(C(F)(F)F)c3)nc21` [Compound I-86a, (S)-1-Methyl-3-(trifluoromethyl)-N-(2-(2-(trifluoromethyl)pyridin-4-yl)-5,6,7,8-tetrahydro-[1,2,4]triazolo[1,5-a]pyridin-8-yl)-1H-pyrazole-5-carboxamide] gave a pIC50 of over 6.60.

In turn, `Cn1nc(C(F)(F)F)cc1C(=O)N[C@H]1CCCc2cn(-c3ccnc(C(F)(F)F)c3)nc21` [Compound I-87a] gave a pIC50 of 6.00 to 6.30.

For `Cn1nc(C(F)(F)F)cc1C(=O)N[C@@H]1CCCc2cn(-c3ccnc(C(F)(F)F)c3)nc21` [Compound I-87b], the pIC50 was under 6.00.

`Cn1nc(C(F)(F)F)cc1C(=O)N[C@H]1CCCc2nn(-c3ccnc(C(=O)O)c3)cc21` [Compound I-88a] gave a pIC50 of under 6.00.

Consider `Cn1nc(C(F)(F)F)cc1C(=O)N[C@H]1CCCc2cc(-c3ccnc(C(F)(F)F)c3)[nH]c21` [Compound I-89a, (S)-1-Methyl-3-(trifluoromethyl)-N-(2-(2-(trifluoromethyl)pyridin-4-yl)-4,5,6,7-tetrahydro-1H-indol-7-yl)-1H-pyrazole-5-carboxamide], for which the pIC50 was under 6.00.

As for `Cc1c2c(nn1-c1ccnc(C(F)(F)F)c1)CCC[C@@H]2NC(=O)c1cc(C(F)(F)F)nn1C` [Compound I-90a], the pIC50 is 6.30 to 6.60.

As to `O=C(N[C@H]1CCc2nn(-c3ccnc(C(F)(F)F)c3)cc21)c1ccccc1` [Compound I-91a], the pIC50 is over 6.60.

Compound `O=C(N[C@@H]1CCc2nn(-c3ccnc(C(F)(F)F)c3)cc21)c1ccccc1` [Compound I-91b] gave a pIC50 of under 6.00.

Turning to `Cc1ccccc1C(=O)N[C@H]1CCc2nn(-c3ccnc(C(F)(F)F)c3)cc21` [Compound I-92a], the pIC50 was over 6.60.

`Cc1ccccc1C(=O)N[C@@H]1CCc2nn(-c3ccnc(C(F)(F)F)c3)cc21` [Compound I-92b] had a pIC50 of under 6.00.

Regarding `Cc1ccc(C(=O)N[C@H]2CCc3nn(-c4ccnc(C(F)(F)F)c4)cc32)c(C)c1` [Compound I-93a], the pIC50 is over 6.60.

For `Cc1ccc(C(=O)N[C@@H]2CCc3nn(-c4ccnc(C(F)(F)F)c4)cc32)c(C)c1` [Compound I-93b], the pIC50 was under 6.00.

The compound `COc1ccccc1C(=O)N[C@H]1CCc2nn(-c3ccnc(C(F)(F)F)c3)cc21` [Compound I-94a] showed a pIC50 of over 6.60.

`COc1ccccc1C(=O)N[C@@H]1CCc2nn(-c3ccnc(C(F)(F)F)c3)cc21` [Compound I-94b]: the pIC50 was under 6.00.

On to `Cc1cc(Cl)ccc1C(=O)N[C@H]1CCc2nn(-c3ccnc(C(F)(F)F)c3)cc21` [Compound I-95a], for which the pIC50 is over 6.60.

Turning to `Cc1cc(Cl)ccc1C(=O)N[C@@H]1CCc2nn(-c3ccnc(C(F)(F)F)c3)cc21` [Compound I-95b], the pIC50 was under 6.00.

Regarding `CS(=O)(=O)c1ccc(C(=O)N[C@H]2CCc3nn(-c4ccnc(C(F)(F)F)c4)cc32)cc1` [Compound I-96a], the pIC50 is under 6.00.

Turning to `CS(=O)(=O)c1ccc(C(=O)N[C@@H]2CCc3nn(-c4ccnc(C(F)(F)F)c4)cc32)cc1` [Compound I-96b], the pIC50 was under 6.00.

Compound `Cc1cccc(C(=O)N[C@H]2CCc3nn(-c4ccnc(C(F)(F)F)c4)cc32)c1` [Compound I-97a] had a pIC50 of over 6.60.

Turning to `Cc1cccc(C(=O)N[C@@H]2CCc3nn(-c4ccnc(C(F)(F)F)c4)cc32)c1` [Compound I-97b], the pIC50 is under 6.00.

Consider `Cc1cc(Cl)cc(C(=O)N[C@H]2CCc3nn(-c4ccnc(C(F)(F)F)c4)cc32)c1` [Compound I-98a], for which the pIC50 was over 6.60.

`Cc1cc(Cl)cc(C(=O)N[C@@H]2CCc3nn(-c4ccnc(C(F)(F)F)c4)cc32)c1` [Compound I-98b] showed a pIC50 of under 6.00.

For the compound `O=C(N[C@H]1CCc2nn(-c3ccnc(C(F)(F)F)c3)cc21)c1cc(Cl)cc(Cl)c1` [Compound I-99a], the pIC50 was over 6.60.

`O=C(N[C@@H]1CCc2nn(-c3ccnc(C(F)(F)F)c3)cc21)c1cc(Cl)cc(Cl)c1` [Compound I-99b] had a pIC50 of 6.00 to 6.30.

Regarding `O=C(N[C@H]1CCc2nn(-c3ccnc(C(F)(F)F)c3)cc21)c1cc(F)cc(F)c1` [Compound I-100a], the pIC50 is over 6.60.

As for `O=C(N[C@@H]1CCc2nn(-c3ccnc(C(F)(F)F)c3)cc21)c1cc(F)cc(F)c1` [Compound I-100b], the pIC50 was under 6.00.

(Values after patent US20250313548A1 (Actio Biosciences, Inc., priority 2023, published 2025).)
